Laboratory results taken from patent publication US20250381168A1, “VLA4 INHIBITORS AND USES THEREOF” (Washington University, priority 2022, published 2025).
Like-named read-outs stand apart in the source and are kept apart here.

Columns and labels:
[1] = system: hematopoietic stem/progenitor cells (HSPCs); test: HSPC mobilization into peripheral blood, colony forming unit (CFU) assay; conditions: mice
Experimental: HSPC mobilization. […] For those that dissolve in straight saline, a 0.2 mL dose, diluted with saline from the stock solution to provide the target dose (in mg/kg), was injected s.c. to each test mouse.
When doing combination studies with the VLA4 inhibitor plus a CXCR4 inhibitor and/or a CXCL2 agonist, the other agents were dosed as follows:
The CXCR4 inhibitor AMD3100 (Mozobil®, Genzyme, Cambridge, MA, USA) suspension was prepared in PBS and administered s.c. at a dose of 5 mg/kg.
Recombinant human CXCL2 (Groβt; R & D systems) was reconstituted in sterile Ca^+2/Mg^+2-free phosphate buffered saline (PBS) and injected subcutaneously (s.c.) at a dose of 2.5 mg/kg.
Colony forming unit (CFU) assay. Peripheral blood (PB) was drawn from the facial vein without anaesthesia into K/EDTA anti-coagulated tubes (Sarstedt AG & Co, NOmbrecht, Germany) at various time points post dosing of the test compounds. Red blood cells were removed from aliquots of blood using hypotonic lysis (Ammonium-Chloride-Potassium, ACK buffer, 5-10 min at RT) and samples were mixed with 2 mL mouse methylcellulose complete media, supplemented with a cocktail of recombinant cytokines (HS0007; R & D Systems, Minneapolis, USA). Cultures were plated in duplicate in 35 mm dishes and placed in a humidified chamber with 5% CO2 at 37° C. After 7 d of culture, colonies containing at least 50 cells were counted using an inverted microscope in a blinded fashion.

VLA-4 (a4b1) = VLA-4 (a4b1) (Homo sapiens (Human), UniProt P05556+P13612); test: sVCAM flow cytometry cell-based assay (inhibition of soluble VCAM-1 binding to G2 ALL cells);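 note: compounds at 0.1 to 1000 nM preincubated 30 min with G2 ALL cells, then VCAM/Fc added for 30 min, bound VCAM-1 detected by PE secondary antibody, percent binding cells by flow cytometry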
VLA-4 (a4b1), sequence (P13612 34-1032): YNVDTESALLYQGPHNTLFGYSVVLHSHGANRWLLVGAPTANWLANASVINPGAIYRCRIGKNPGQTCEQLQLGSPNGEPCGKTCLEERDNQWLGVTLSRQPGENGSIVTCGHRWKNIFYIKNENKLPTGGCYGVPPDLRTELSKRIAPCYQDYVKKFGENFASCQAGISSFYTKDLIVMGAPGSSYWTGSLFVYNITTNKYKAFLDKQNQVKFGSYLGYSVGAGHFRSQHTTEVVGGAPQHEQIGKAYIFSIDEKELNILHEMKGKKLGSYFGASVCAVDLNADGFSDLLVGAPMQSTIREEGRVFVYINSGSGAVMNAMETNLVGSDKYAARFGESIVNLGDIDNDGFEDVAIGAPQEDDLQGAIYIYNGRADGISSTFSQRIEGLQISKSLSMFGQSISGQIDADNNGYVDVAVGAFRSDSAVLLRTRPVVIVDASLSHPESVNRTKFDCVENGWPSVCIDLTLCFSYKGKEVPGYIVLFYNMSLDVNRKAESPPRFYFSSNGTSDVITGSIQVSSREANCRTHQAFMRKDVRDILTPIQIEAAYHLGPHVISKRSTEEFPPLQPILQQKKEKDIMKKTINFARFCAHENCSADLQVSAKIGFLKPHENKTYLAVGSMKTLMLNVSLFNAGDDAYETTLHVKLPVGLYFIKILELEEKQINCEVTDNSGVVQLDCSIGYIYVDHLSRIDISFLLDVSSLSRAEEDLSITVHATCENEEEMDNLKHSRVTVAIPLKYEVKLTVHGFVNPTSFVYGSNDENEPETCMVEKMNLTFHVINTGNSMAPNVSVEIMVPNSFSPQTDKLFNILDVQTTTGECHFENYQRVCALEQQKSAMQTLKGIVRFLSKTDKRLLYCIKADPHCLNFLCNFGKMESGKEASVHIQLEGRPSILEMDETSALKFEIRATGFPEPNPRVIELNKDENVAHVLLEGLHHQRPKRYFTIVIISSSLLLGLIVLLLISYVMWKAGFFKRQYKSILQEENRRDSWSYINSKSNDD
VLA-4 (a4b1), sequence (P05556 21-798): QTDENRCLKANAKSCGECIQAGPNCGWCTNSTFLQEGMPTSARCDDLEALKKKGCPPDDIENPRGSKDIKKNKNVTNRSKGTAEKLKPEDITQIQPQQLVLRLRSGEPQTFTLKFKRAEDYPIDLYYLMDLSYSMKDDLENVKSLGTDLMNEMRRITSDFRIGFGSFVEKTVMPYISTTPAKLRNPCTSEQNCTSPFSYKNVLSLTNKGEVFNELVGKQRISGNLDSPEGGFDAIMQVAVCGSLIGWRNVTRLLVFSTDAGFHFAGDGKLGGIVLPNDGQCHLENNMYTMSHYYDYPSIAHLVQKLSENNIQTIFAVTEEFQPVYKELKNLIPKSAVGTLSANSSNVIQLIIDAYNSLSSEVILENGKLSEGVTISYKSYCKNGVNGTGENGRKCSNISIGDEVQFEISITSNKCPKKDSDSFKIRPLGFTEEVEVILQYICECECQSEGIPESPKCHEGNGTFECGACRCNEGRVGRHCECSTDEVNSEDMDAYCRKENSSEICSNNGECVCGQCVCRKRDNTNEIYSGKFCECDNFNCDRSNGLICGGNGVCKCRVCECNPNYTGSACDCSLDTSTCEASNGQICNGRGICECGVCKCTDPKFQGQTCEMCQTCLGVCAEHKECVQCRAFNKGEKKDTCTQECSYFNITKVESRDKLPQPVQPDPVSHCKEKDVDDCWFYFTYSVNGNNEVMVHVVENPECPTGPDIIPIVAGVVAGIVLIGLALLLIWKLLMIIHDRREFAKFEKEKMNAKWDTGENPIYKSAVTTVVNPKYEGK
Experimental: VLA-4 (a4b1) inhibitor compounds were tested for their ability to inhibit the binding of soluble VCAM-1 to human G2 acute lymphoblastic leukemia (ALL) cells. Briefly, G2 ALL cells are pre-incubated with increasing concentrations (0.1 to 1000 nM) of compounds for 30 minutes. Soluble VCAM/Fc chimera protein (R & D systems) is then added to the mixture and the cells incubated for an additional 30 minutes. Afterwards, cells are washed and VCAM-1 is detected using a PE-conjugated secondary polyclonal antibody. In each experiment, an aliquot of cells are stained with isotype control antibodies to serve as a negative control. The percentage of VCAM-1 binding cells was then determined by flow cytometry.

integrin a4b7 = integrin a4b7 (Homo sapiens (Human), UniProt P13612+P26010); test: a4b7 solid phase receptor assay (SPRA); conditions: recombinant human a4b7 binding to plate-coated human VCAM1 (TABLE 4)
integrin a4b7, sequence (P13612 34-970): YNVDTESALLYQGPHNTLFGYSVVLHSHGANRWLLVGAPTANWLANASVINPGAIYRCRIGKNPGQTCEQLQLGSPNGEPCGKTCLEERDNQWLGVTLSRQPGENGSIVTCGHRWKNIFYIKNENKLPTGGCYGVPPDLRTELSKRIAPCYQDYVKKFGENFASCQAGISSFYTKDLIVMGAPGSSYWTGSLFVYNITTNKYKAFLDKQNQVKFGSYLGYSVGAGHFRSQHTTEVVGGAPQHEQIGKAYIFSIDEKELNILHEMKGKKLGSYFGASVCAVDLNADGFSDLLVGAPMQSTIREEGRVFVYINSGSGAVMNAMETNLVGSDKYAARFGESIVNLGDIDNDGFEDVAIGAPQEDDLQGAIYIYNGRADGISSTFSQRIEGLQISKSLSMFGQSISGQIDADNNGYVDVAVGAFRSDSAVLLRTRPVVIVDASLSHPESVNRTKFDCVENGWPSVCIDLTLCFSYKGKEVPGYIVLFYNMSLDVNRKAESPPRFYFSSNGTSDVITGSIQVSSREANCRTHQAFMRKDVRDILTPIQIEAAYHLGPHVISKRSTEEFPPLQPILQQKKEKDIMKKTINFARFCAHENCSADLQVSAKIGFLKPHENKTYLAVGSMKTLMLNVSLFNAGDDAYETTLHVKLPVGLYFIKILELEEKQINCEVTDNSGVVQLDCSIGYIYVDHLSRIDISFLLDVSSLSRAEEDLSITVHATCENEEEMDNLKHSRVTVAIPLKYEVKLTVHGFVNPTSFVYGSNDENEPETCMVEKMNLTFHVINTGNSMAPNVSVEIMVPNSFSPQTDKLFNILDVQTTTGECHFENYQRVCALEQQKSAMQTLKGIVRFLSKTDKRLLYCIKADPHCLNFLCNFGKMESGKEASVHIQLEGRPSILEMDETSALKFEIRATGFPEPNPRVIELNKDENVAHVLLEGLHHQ
integrin a4b7, sequence (P26010 20-723): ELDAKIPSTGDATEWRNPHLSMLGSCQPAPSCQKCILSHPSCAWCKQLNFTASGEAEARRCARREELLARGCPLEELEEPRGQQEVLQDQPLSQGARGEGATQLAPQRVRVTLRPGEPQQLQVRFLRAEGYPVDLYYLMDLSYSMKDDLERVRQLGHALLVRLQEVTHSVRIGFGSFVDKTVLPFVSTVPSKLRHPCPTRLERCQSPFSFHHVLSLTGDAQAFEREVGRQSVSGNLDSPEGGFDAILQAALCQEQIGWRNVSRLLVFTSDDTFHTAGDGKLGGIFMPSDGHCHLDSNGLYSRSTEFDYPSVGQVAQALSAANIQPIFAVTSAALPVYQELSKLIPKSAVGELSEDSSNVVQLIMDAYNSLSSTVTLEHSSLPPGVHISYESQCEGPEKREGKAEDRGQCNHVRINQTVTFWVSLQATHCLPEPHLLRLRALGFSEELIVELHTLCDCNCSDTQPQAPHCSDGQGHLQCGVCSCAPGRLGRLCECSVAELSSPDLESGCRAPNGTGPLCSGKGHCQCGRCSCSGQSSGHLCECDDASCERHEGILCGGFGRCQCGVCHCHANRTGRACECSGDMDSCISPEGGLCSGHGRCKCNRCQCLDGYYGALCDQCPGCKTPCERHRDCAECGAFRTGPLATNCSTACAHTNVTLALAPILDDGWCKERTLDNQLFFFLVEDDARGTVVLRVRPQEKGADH
Experimental: Wells were washed 3 times with TBS+ and blocking buffer (TBS+ with 1% bovine serum albumin), the plate was incubated for 1 hr at 37° C., and then washed 3× with TBS+ buffer. Recombinant human a4b7 (R & D Systems) was diluted to 1 μg/ml in TBS+/0.1% bovine serum albumin. Test compounds were diluted into the integrin solution and added to the washed ligand-coated plate according to a standard template with each sample repeated in triplicate. After incubation for 2 hr at room temperature, the plate was washed 3× with 150 μl of TBS+ buffer. To each well, biotinylated anti-A4 antibody (R & D Systems) at 1 μg/ml in TBS+/0.1% BSA was added and the plate covered and incubated for 1 hr at room temperature. After washing the plate 3× with TBS+ buffer, streptavidin-conjugated horseradish peroxidase (R & D Systems) diluted in TBS+ blocking buffer was added to the wells and the plate incubated for 20 min at room temperature. The plate was washed 3× with TBS+ buffer followed by addition of 50 μl of TMB substrate (Sigma T4444). After incubation for 20 min at room temperature, plates were stopped with TMB stop solution (Sigma S5689) by colorimetric detection at 450 nm wavelength using a Tecan Safire II plate reader.

[2] = single dose, peripheral blood, 2 hr post dose (TABLE 9)
[3] = single dose, peripheral blood, 2 hr post dose (TABLE 10)
[4] = single dose, peripheral blood, 4 hr post dose (TABLE 9)
[5] = single dose, peripheral blood, 4 hr post dose (TABLE 10)
[6] = single dose, peripheral blood, 6 hr post dose (TABLE 9)
[7] = single dose, peripheral blood, 6 hr post dose (TABLE 10)
[8] = as listed in TABLE 9, read-out: sVCAM IC50
[9] = as listed in TABLE 10, read-out: sVCAM IC50
[10] = inhibition of sVCAM-1 binding to human G2 ALL cells (TABLE 3), read-out: SVCAM-1, IC50

For `COCCOCCOCCOCCOCCOCCOCCOCCOCCOCCOCCOCCOCCOCCOCCOCCOCCOCCOCCOCCOCCOCCOCCOCCOCc1cc(OC)c(-c2ccc(C[C@H](NC(=O)[C@@H]3CCCN3S(=O)(=O)c3cc(Cl)cc(Cl)c3)C(=O)O)cc2)c(OC)c1` [Example 1], the “HSPC mobilization in the triple combination regimen with plerixafor and truncated Groβ” value [1] was “high degree of extended mobilization”, the “No. CFU (×10^3)/mL ± SD, 2 hr” value ([1]; alone or in combination with Plerixafor and tGroβ, peripheral blood, 2 hr (TABLE 17)) was 5.69 ± 2.57 (×10^3)/mL and the “No. CFU (×10^3)/mL ± SD, 4 hr” value ([1]; alone or in combination with Plerixafor and tGroβ, peripheral blood, 4 hr (TABLE 17)) was 4.82 ± 1.07 (×10^3)/mL. For the same compound, the “No. CFU (×10^3)/mL ± SD, 6 hr” value ([1]; alone or in combination with Plerixafor and tGroβ, peripheral blood, 6 hr (TABLE 17)) was 2.97 ± 0.65 (×10^3)/mL, the “HSPC mobilization, result in words” value ([1]; single dose) was “significant HSPC mobilization at 4 hours” and the “No. CFU (×10^3)/mL ± SD, 2 hr” value ([1]; single dose alone or in combination with AMD3100 (5 mg/kg s.c.), peripheral blood, 2 hr (TABLE 14)) was 5.94 ± 4.52 (×10^3)/mL. The “No. CFU (×10^3)/mL ± SD, 3 hr” value ([1]; single dose alone or in combination with AMD3100 (5 mg/kg s.c.), peripheral blood, 3 hr (TABLE 14)) was 6.42 ± 4.64 (×10^3)/mL, the “No. CFU (×10^3)/mL ± SD, 5 hr” value ([1]; single dose alone or in combination with AMD3100 (5 mg/kg s.c.), peripheral blood, 5 hr (TABLE 14)) was 5.02 ± 1.67 (×10^3)/mL and the “No. CFU (x10^3)/mL ± SD, 4 hr” value ([1]; single dose alone or in combination with Plerixafor (5 mg/kg s.c.), peripheral blood, 4 hr (TABLE 15)) was 2.65 ± 1.15 (x10^3)/mL. The “No. CFU (x10^3)/mL ± SD, 6 hr” value ([1]; single dose alone or in combination with Plerixafor (5 mg/kg s.c.), peripheral blood, 6 hr (TABLE 15)) was 1.43 ± 0.56 (x10^3)/mL, the “No. CFU (x10^3)/mL ± SD, 24 hr” value ([1]; single dose alone or in combination with Plerixafor (5 mg/kg s.c.), peripheral blood, 24 hr (TABLE 15)) was 0.22 ± 0.10 (x10^3)/mL and the “effect on extended HSPC mobilization in combination with a single dose of the CXCR4 inhibitor AMD3100 (Plerixafor)” value ([1]; single dose of each agent) was “synergistic effects”. The “No. CFU (×10^3)/mL ± SD, 0.25 hr” value ([1]; single dose, peripheral blood, 0.25 hr post dose (TABLE 8)) was 4.10 ± 1.53 (×10^3)/mL, the “No. CFU (×10^3)/mL ± SD, 0.5 hr” value ([1]; single dose, peripheral blood, 0.5 hr post dose (TABLE 7)) was 1.22 ± 0.35 (×10^3)/mL and the “No. CFU (×10^3)/mL ± SD, 2 hr” value ([1]; single dose, peripheral blood, 2 hr post dose (TABLE 7)) was 2.12 ± 1.04 (×10^3)/mL. For the same compound, the “No. CFU (×10^3)/mL ± SD, 2 hr” value ([1]; single dose, peripheral blood, 2 hr post dose (TABLE 8)) was 4.79 ± 2.05 (×10^3)/mL, the “No. CFU (×10^3)/mL ± SD, 2 hr” value [1, 2] was 4.72 ± 1.19 (×10^3)/mL and the “No. CFU (×10^3)/mL ± SD, 2 hr” value [1, 3] was 4.18 ± 1.99 (×10^3)/mL. For the same compound, the “No. CFU (x10^3)/mL ± SD, 2 hr” value ([1]; single dose, peripheral blood, 2 hr post dose (TABLE 11)) was 3.14 ± 0.63 (x10^3)/mL, the “No. CFU (×10^3)/mL ± SD, 4 hr” value ([1]; single dose, peripheral blood, 4 hr post dose (TABLE 7)) was 2.30 ± 0.25 (×10^3)/mL and the “No. CFU (×10^3)/mL ± SD, 4 hr” value ([1]; single dose, peripheral blood, 4 hr post dose (TABLE 8)) was 4.43 ± 0.66 (×10^3)/mL. For the same compound, the “No. CFU (×10^3)/mL ± SD, 4 hr” value [1, 4] was 5.00 ± 1.26 (×10^3)/mL, the “No. CFU (×10^3)/mL ± SD, 4 hr” value [1, 5] was 4.41 ± 0.89 (×10^3)/mL and the “No. CFU (x10^3)/mL ± SD, 4 hr” value ([1]; single dose, peripheral blood, 4 hr post dose (TABLE 11)) was 4.14 ± 1.31 (x10^3)/mL. The “No. CFU (×10^3)/mL ± SD, 4 hr” value ([1]; single dose, peripheral blood, 4 hr post dose (TABLE 18)) was 5.18 ± 1.99 (×10^3)/mL, the “No. CFU (×10^3)/mL ± SD, 6 hr” value [1, 6] was 1.84 ± 0.63 (×10^3)/mL and the “No. CFU (×10^3)/mL ± SD, 6 hr” value [1, 7] was 1.78 ± 0.38 (×10^3)/mL. The “No. CFU (x10^3)/mL ± SD, 6 hr” value ([1]; single dose, peripheral blood, 6 hr post dose (TABLE 11)) was 2.20 ± 0.63 (x10^3)/mL, the “No. CFU (×10^3)/mL ± SD, 8 hr” value ([1]; single dose, peripheral blood, 8 hr post dose (TABLE 18)) was 2.00 ± 0.66 (×10^3)/mL and the “No. CFU (x10^3)/mL ± SD, 24 hr” value ([1]; single dose, peripheral blood, 24 hr post dose (TABLE 11)) was 0.29 ± 0.11 (x10^3)/mL. For the same compound, the “No. CFU (×10^3)/mL ± SD, 24 hr” value ([1]; single dose, peripheral blood, 24 hr post dose (TABLE 18)) was 0.46 ± 0.30 (×10^3)/mL, the “No. CFU (x10^3)/mL ± SD, 2 hr” value ([1]; single injection, peripheral blood, 2 hr post dose (TABLE 12)) was 4.72 ± 0.33 (x10^3)/mL and the “No. CFU (x10^3)/mL ± SD, 4 hr” value ([1]; single injection, peripheral blood, 4 hr post dose (TABLE 12)) was 3.38 ± 0.21 (x10^3)/mL. The “No. CFU (x10^3)/mL ± SD, 6 hr” value ([1]; single injection, peripheral blood, 6 hr post dose (TABLE 12)) was 2.87 ± 0.39 (x10^3)/mL, the “No. CFU (x10^3)/mL ± SD, 8 hr” value ([1]; single injection, peripheral blood, 8 hr post dose (TABLE 12)) was 1.12 ± 0.48 (x10^3)/mL and the IC50 (VLA-4 (a4b1); as listed in TABLE 7, read-out: sVCAM IC50) was 0.373 nM. It also gave an IC50 (VLA-4 (a4b1); as listed in TABLE 8, read-out: sVCAM IC50) of 0.373 nM, an IC50 (VLA-4 (a4b1); [8]) of 0.373 nM and an IC50 (VLA-4 (a4b1); [9]) of 0.373 nM. It also gave an IC50 (VLA-4 (a4b1); as listed in TABLE 11, read-out: sVCAM IC50) of 0.373 nM, an IC50 (VLA-4 (a4b1); as listed in TABLE 12, read-out: sVCAM IC50) of 0.373 nM and an IC50 (VLA-4 (a4b1); as listed in TABLE 14, read-out: sVCAM IC50) of 0.373 nM. It also gave an IC50 (VLA-4 (a4b1); as listed in TABLE 15, read-out: sVCAM IC50) of 0.373 nM, an IC50 (VLA-4 (a4b1); as listed in TABLE 17, read-out: sVCAM IC50) of 0.373 nM and an IC50 (VLA-4 (a4b1); as listed in TABLE 18, read-out: sVCAM IC50) of 0.373 nM. For the same compound, the IC50 (VLA-4 (a4b1); [10]) was 0.373 nM and the IC50 (integrin a4b7) was 5.6 nM.
With `COCCOCCOCCOCCOCCOCCOCCOCCOCCOCCOCCOCCOCCOCCOCCOCCOCCOCCOCCOCCOCCOCCOCCOCCOCCOCCOCCOCCOCCOCCOCCOCCOCCOCCOCCOCCOCc1cc(OC)c(-c2ccc(C[C@H](NC(=O)[C@@H]3CCCN3S(=O)(=O)c3cc(Cl)cc(Cl)c3)C(=O)O)cc2)c(OC)c1` [Example 2] the “No. CFU (×10^3)/mL ± SD, 2 hr” value [1, 2] was 4.10 ± 1.40 (×10^3)/mL, the “No. CFU (×10^3)/mL ± SD, 2 hr” value [1, 3] was 4.42 ± 1.41 (×10^3)/mL and the “No. CFU (×10^3)/mL ± SD, 4 hr” value [1, 4] was 4.98 ± 1.88 (×10^3)/mL. For the same compound, the “No. CFU (×10^3)/mL ± SD, 4 hr” value [1, 5] was 3.59 ± 0.93 (×10^3)/mL, the “No. CFU (×10^3)/mL ± SD, 6 hr” value [1, 6] was 1.87 ± 0.58 (×10^3)/mL and the “No. CFU (×10^3)/mL ± SD, 6 hr” value [1, 7] was 2.12 ± 0.84 (×10^3)/mL. For the same compound, the IC50 (VLA-4 (a4b1); [8]) was 0.833 nM, the IC50 (VLA-4 (a4b1); [9]) was 0.833 nM and the IC50 (VLA-4 (a4b1); [10]) was 0.833 nM. The IC50 (integrin a4b7) was 5.4 nM.
